Source: US20210268017A1, “MOLECULAR HYDROGEN-CONTAINING COMPOSITION FOR PREVENTION AND/OR IMPROVEMENT OF PNEUMONIA” (MiZ Company Limited, priority 2020, published 2021)

Experiments:
[1] = tested on: interstitial pneumonia; conditions: patient; drip infusion 1 ppm hydrogen 250 ml plus hydrogen gas inhalation (6 to 7%, 120 ml/min) 30 to 60 minutes once weekly for 8 weeks
Description: A patient who was diagnosed as having interstitial pneumonia received a drip infusion of hydrogen (1 ppm hydrogen, 250 ml) and inhalation of hydrogen gas over 30 minutes to 60 minutes once weekly for 8 weeks. MHG-2000α manufactured by MiZ Company Limited (hydrogen gas concentration 6 to 7%, 120 ml/min) was used for inhalation of a hydrogen gas.

[2] = room temperature, normal pressure; also printed as 1.6 mg/L; cited from earlier work
[3] = tested on: chronic bronchitis and obstructive lung bronchitis; conditions: mice; earlier study; cited from earlier work

[HH] [hydrogen, molecular hydrogen]
improvement of interstitial pneumonia, confirmed by disappearance of ground-glass opacity in the CT finding [1]: Significant improvement | concentration of hydrogen dissolved in water [2]: approximately 1.6 ppm | effect on chronic bronchitis and obstructive lung bronchitis [3]: improved chronic bronchitis and obstructive lung bronchitis
